Measured values reported in US12490739B2, “Synergistically effective fungicide composition comprising choline phosphonate and at least one additional fungicide” (BELCHIM CROP PROTECTION NV, priority 2019, dated 2025).

Assays:
Assay type in all cases: in vivo
Venturia inaequalis = test: Example 5 field trials, apple (Malus domestica var. Golden delicious) infected with scab; details: 60 g a.c./ha
Plasmopara viticola = test: Example 6 field trials, Vitis vinifera infected with downy mildew; details: 120 g a.c./ha
Sphaerotheca fuliginea = test: Example 3 field trial, cucumber (Cucumis sativus var. Bosco) infected with powdery mildew, Italy; details: 2080 g a.c./ha
Uncinula necator = test: Example 12 field trial, Vitis vinifera var. Carignan infected with powdery mildew, France; details: 2320 g a.c./ha
Podosphaera leucotricha = test: Example 13 field trials, apple (Malus domestica var. Gold Rush, var. Morgenduft Dallago) infected with powdery mildew; details: 2640 g a.c./ha

Cc1cc(OC(C)C)ccc1C(=O)C(C)(C)NC(=O)c1sccc1C [ISO, N-[1,1-dimethyl-2-(4-isopropoxy-o-tolyl)-2-oxoethyl]-3-methylthiophene-2-carboxamide]
ISO f.e. (%) (Venturia inaequalis; PESINC, location 1 (France), 6 DA-A4, BBCH 72): 13.3%
ISO f.e. (%) (Venturia inaequalis; PESINC, location 2 (Italy), 4 DA-A11, BBCH 75): 4.1%
ISO f.e. (%) (Venturia inaequalis; PESINC, location 2 (Italy), 6 DA-A9, BBCH 74): 12.1%
ISO f.e. (%) (Venturia inaequalis; PESINC, location 2 (Italy), 6 DA-A13, BBCH 77): 5.5%
ISO f.e. (%) (Venturia inaequalis; PESINC, location 2 (Italy), 7 DA-A6, BBCH 72): 16.8%
ISO f.e. (%) (Venturia inaequalis; PESINC, location 3 (Belgium), 31 DA-A9, BBCH 73): 8.7%
ISO f.e. (%) (Venturia inaequalis; PESINC, location 3 (Belgium), 80 DA-A9, BBCH 73): 2.2%
ISO f.e. (%) (Venturia inaequalis; PESSEV, location 2 (Italy), 4 DA-A11, BBCH 75): 22.6%
ISO f.e. (%) (Venturia inaequalis; PESSEV, location 2 (Italy), 6 DA-A9, BBCH 74): 25.3%
ISO f.e. (%) (Venturia inaequalis; PESSEV, location 2 (Italy), 6 DA-A13, BBCH 77): 27.7%
ISO f.e. (%) (Venturia inaequalis; PESSEV, location 2 (Italy), 7 DA-A6, BBCH 72): 32.9%

CCC(C)(NC(=O)c1cc(Cl)c(C)c(Cl)c1)C(=O)CCl (racemic) [ZOX, (RS)-3,5-dichloro-N-(3-chloro-1-ethyl-1-methyl-2-oxopropyl)-ptoluamide]
ZOX f.e. (%) (Plasmopara viticola; PESINC, location 1 (France, Negrette), 50 bunches, 1 DA-A6, BBCH 69): 73.0%
ZOX f.e. (%) (Plasmopara viticola; PESINC, location 1 (France, Negrette), 50 bunches, 1 DA-A8, BBCH 75): 18.0%
ZOX f.e. (%) (Plasmopara viticola; PESINC, location 1 (France, Negrette), 50 bunches, 16 DA-A9, BBCH 81): 1.0%
ZOX f.e. (%) (Plasmopara viticola; PESINC, location 2 (France, Grenache), 50 bunches, 9 DA-A4, BBCH 71): 10.0%
ZOX f.e. (%) (Plasmopara viticola; PESINC, location 2 (France, Grenache), 50 bunches, 9 DA-A4, BBCH 77): 0.0%
ZOX f.e. (%) (Plasmopara viticola; PESINC, location 2 (France, Grenache), 100 leaves, 6 DA-A5, BBCH 77): 0.0%
ZOX f.e. (%) (Plasmopara viticola; PESINC, location 2 (France, Grenache), 100 leaves, 9 DA-A4, BBCH 71): 22.8%
ZOX f.e. (%) (Plasmopara viticola; PESINC, location 3 (Germany, Mueller-Thurgau), 50 bunches, 11 DA-A4, BBCH 75): 48.8%
ZOX f.e. (%) (Plasmopara viticola; PESINC, location 3 (Germany, Mueller-Thurgau), 100 leaves, 7 DA-A8, BBCH 83): 16.0%
ZOX f.e. (%) (Plasmopara viticola; PESINC, location 3 (Germany, Mueller-Thurgau), 100 leaves, 13 DA-A6, BBCH 83): 18.7%
ZOX f.e. (%) (Plasmopara viticola; PESSEV, location 1 (France, Negrette), 50 bunches, 1 DA-A8, BBCH 75): 75.2%
ZOX f.e. (%) (Plasmopara viticola; PESSEV, location 1 (France, Negrette), 50 bunches, 16 DA-A9, BBCH 81): 51.7%
ZOX f.e. (%) (Plasmopara viticola; PESSEV, location 2 (France, Grenache), 50 bunches, 8 DA-A5, BBCH 77): 21.4%
ZOX f.e. (%) (Plasmopara viticola; PESSEV, location 2 (France, Grenache), 50 bunches, 9 DA-A4, BBCH 71): 81.3%
ZOX f.e. (%) (Plasmopara viticola; PESSEV, location 2 (France, Grenache), 50 bunches, 9 DA-A6, BBCH 79): 1.3%
ZOX f.e. (%) (Plasmopara viticola; PESSEV, location 2 (France, Grenache), 100 leaves, 6 DA-A5, BBCH 77): 15.1%
ZOX f.e. (%) (Plasmopara viticola; PESSEV, location 2 (France, Grenache), 100 leaves, 9 DA-A4, BBCH 71): 67.7%
ZOX f.e. (%) (Plasmopara viticola; PESSEV, location 3 (Germany, Mueller-Thurgau), 50 bunches, 7 DA-A8, BBCH 83): 48.9%
ZOX f.e. (%) (Plasmopara viticola; PESSEV, location 3 (Germany, Mueller-Thurgau), 50 bunches, 11 DA-A4, BBCH 75): 80.2%
ZOX f.e. (%) (Plasmopara viticola; PESSEV, location 3 (Germany, Mueller-Thurgau), 50 bunches, 13 DA-A6, BBCH 83): 49.2%
ZOX f.e. (%) (Plasmopara viticola; PESSEV, location 3 (Germany, Mueller-Thurgau), 100 leaves, 13 DA-A6, BBCH 83): 52.1%

S1SSSSSSS1 [S, sulphur]
S f.e. (%) (Sphaerotheca fuliginea; PESINC curative, 7 DA-A2, BBCH 73): 85.1%
S f.e. (%) (Sphaerotheca fuliginea; PESINC curative, 7 DA-A3, BBCH 76): 87.5%
S f.e. (%) (Sphaerotheca fuliginea; PESINC curative, 7 DA-A4, BBCH 77): 77.5%
S f.e. (%) (Sphaerotheca fuliginea; PESINC curative, 14 DA-A4, BBCH 78): 58.9%
S f.e. (%) (Sphaerotheca fuliginea; PESINC, 7 DA-A2, BBCH 73): 88.1%
S f.e. (%) (Sphaerotheca fuliginea; PESINC, 7 DA-A3, BBCH 76): 95%
S f.e. (%) (Sphaerotheca fuliginea; PESINC, 7 DA-A4, BBCH 77): 85.0%
S f.e. (%) (Sphaerotheca fuliginea; PESINC, 14 DA-A4, BBCH 78): 75.2%
S f.e. (%) (Sphaerotheca fuliginea; PESINC, 21 DA-A4, BBCH 79): 69.7%
S f.e. (%) (Sphaerotheca fuliginea; PESSEV curative, 7 DA-A2, BBCH 73): 93.6%
S f.e. (%) (Sphaerotheca fuliginea; PESSEV curative, 7 DA-A3, BBCH 76): 96%
S f.e. (%) (Sphaerotheca fuliginea; PESSEV curative, 7 DA-A4, BBCH 77): 95%
S f.e. (%) (Sphaerotheca fuliginea; PESSEV curative, 14 DA-A4, BBCH 78): 93.4%
S f.e. (%) (Sphaerotheca fuliginea; PESSEV, 7 DA-A2, BBCH 73): 96.7%
S f.e. (%) (Sphaerotheca fuliginea; PESSEV, 7 DA-A4, BBCH 77): 97.6%
S f.e. (%) (Sphaerotheca fuliginea; PESSEV, 14 DA-A4, BBCH 78): 96.3%
S f.e. (%) (Sphaerotheca fuliginea; PESSEV, 21 DA-A4, BBCH 79): 96.9%
S f.e. (%) (Uncinula necator; PESINC, 50 bunches, 14 DA-A3, BBCH 77): 5.1%
S f.e. (%) (Uncinula necator; PESINC, 50 bunches, 14 DA-A3, BBCH 77, second listing (r34)): 1.2%
S f.e. (%) (Uncinula necator; PESINC, 50 bunches, 14 DA-A5, BBCH 83): 37.6%
S f.e. (%) (Uncinula necator; PESINC, 50 bunches, 14 DA-A5, BBCH 83, second listing (r36)): 0%
S f.e. (%) (Uncinula necator; PESINC, 100 leaves, 14 DA-A3, BBCH 77): 42.8%
S f.e. (%) (Uncinula necator; PESINC, 100 leaves, 14 DA-A3, BBCH 77, second listing (r32)): 6.3%
S f.e. (%) (Uncinula necator; PESSEV, 50 bunches, 14 DA-A3, BBCH 77): 50.8%
S f.e. (%) (Uncinula necator; PESSEV, 50 bunches, 14 DA-A3, BBCH 77, second listing (r28)): 6.0%
S f.e. (%) (Uncinula necator; PESSEV, 50 bunches, 14 DA-A5, BBCH 83): 14.2%
S f.e. (%) (Uncinula necator; PESSEV, 50 bunches, 14 DA-A5, BBCH 83, second listing (r30)): 18.9%
S f.e. (%) (Uncinula necator; PESSEV, 100 leaves, 14 DA-A3, BBCH 77): 18.7%
S f.e. (%) (Uncinula necator; PESSEV, 100 leaves, 14 DA-A3, BBCH 77, second listing (r26)): 13.9%
S f.e. (%) (Podosphaera leucotricha; PESINC, location 1 (France), 20 shoots, 7 DA-A5, BBCH 71): 80.0%
S f.e. (%) (Podosphaera leucotricha; PESINC, location 1 (France), 100 leaves, 5 DA-A8, BBCH 74): 88.1%
S f.e. (%) (Podosphaera leucotricha; PESINC, location 1 (France), 100 leaves, 6 DA-A6, BBCH 74): 59.1%
S f.e. (%) (Podosphaera leucotricha; PESINC, location 1 (France), 100 leaves, 15 DA-A8, BBCH 76): 80.7%
S f.e. (%) (Podosphaera leucotricha; PESINC, location 2 (Italy), 5 leaves, 5 DA-A6, BBCH 74): 63.9%
S f.e. (%) (Podosphaera leucotricha; PESINC, location 2 (Italy), 40 shoots, 2 DA-A10, BBCH 74): 62.4%
S f.e. (%) (Podosphaera leucotricha; PESINC, location 2 (Italy), 40 shoots, 6 DA-A5, BBCH 71): 57.8%
S f.e. (%) (Podosphaera leucotricha; PESINC, location 2 (Italy), 40 shoots, 6 DA-A11, BBCH 74): 59.4%
S f.e. (%) (Podosphaera leucotricha; PESSEV, location 1 (France), 100 leaves, 6 DA-A6, BBCH 74): 64.1%
S f.e. (%) (Podosphaera leucotricha; PESSEV, location 1 (France), 100 leaves, 15 DA-A8, BBCH 76): 88.2%
S f.e. (%) (Podosphaera leucotricha; PESSEV, location 2 (Italy), 5 leaves, 2 DA-A10, BBCH 74): 82.1%
S f.e. (%) (Podosphaera leucotricha; PESSEV, location 2 (Italy), 5 leaves, 5 DA-A6, BBCH 74): 72.7%
S f.e. (%) (Podosphaera leucotricha; PESSEV, location 2 (Italy), 5 leaves, 6 DA-A11, BBCH 74): 84.4%
